Values quoted from earlier work, collected in patent US20240408053A1, “ENTERITIS-SUPPRESSING COMPOSITION” (KOBE GAKUIN EDUCATIONAL FOUNDATION, priority 2021, published 2024).

Settings: blood metabolites after oral sesaminol in rats, for a short time (NPL 11); cited from earlier work

| Substance | antioxidant activity relative to that of sesaminol |
| --- | --- |
| 5″-methylated sesamin-6-catechol | approximately 1.6 times |
| sesaminol-6-catechol | approximately 1.6 times |
